# Reference: PubChem BioAssay AID2060888 (Molecular Pharmacology Branch, DTP, NCI, 2025)
# Tested on: 695427-040-R-J1-PDC complex spheroid viability
# Experiment: Anticancer human tumor 695427-040-R-J1-PDC patient-derived colon adenocarcinoma cell line growth inhibition [RAS]
# Conditions: for viability, T/C: stronger effect = lower value
# From the text: RAS pathway inhibitors in Combinations in Complex Spheroids
# A high-throughput screen of multi-cell type tumor spheroids was designed to identify active combinations of RAS pathway inhibitors and targeted small molecules. Complex spheroids include a stromal component modeled by human endothelial cells (HUVEC) and fibroblasts modeled by human mesenchymal stem cells (MSCs). The concentration ranges selected for each drug and investigational agent were based upon clinically achievable concentrations if the clinical Cmax of the agent was known.
# Compounds. The drugs and investigational agents: abemaciclib (NSC768073), cobimetinib (NSC768068), divarasib (GDC6063, NSC841802), docetaxel (NSC628503), GDC-1971 (RLY-1971, NSC841576), gemcitabine (NSC613327), inavolisib (NSC800729), ipatasertib (NSC767898), KB-0742 (NSC834161), MRTX-1133 (NSC836407), osimertinib (NSC779217), RMC-4630 (NSC839698), RMC-6236 (NSC851965), RMC-6291 (NSC852671), Ro-3306 (NSC812927), sapanisertib (NSC764658), SN-38 (NSC673596), staurosporine (NSC755774), SY5609 (NSC837396), and tovorafenib (DAY101, NSC766906), were obtained from the National Cancer Institute (NCI) Developmental Therapeutics Program Chemical Repository. The FDA-approved anticancer drug set is available from the NCI Developmental Therapeutics Program. […] The stock solutions were prepared in dimethyl sulfoxide (DMSO, Sigma-Aldrich, St. Louis, MO, cat. D2650) at 800-fold the tested concentration and stored at -70 degrees C prior to their use. All drugs and investigational agents were tested over a range starting from a high concentration at or near the clinical Cmax and decreasing in half-log increments. If the clinical Cmax for an agent had not been determined, the highest concentration tested was 10 microM.
# Cell Culture. All cells were maintained in an incubator at 37 degrees C and 5% CO2 with 95% humidity. The PDC lines were cultured according to standard operating procedures established by the NCI PDMR. All PDCs were thawed and cultured in Matrigel-coated flasks prepared with a working solution of 1X Ham's F-12 nutrient mix, without supplementation (Invitrogen, Waltham, MA, cat. 11765054), 100 U/mL penicillin-streptomycin (Invitrogen, cat. 15140122), and 2.5% Matrigel (Corning Inc., Corning, NY, cat. 354248) for the first three passages. The 362531-283-R-J2-PDC and 782815-120-R-J1-PDC lines were cultured in 6C/Colon 1B media, which includes advanced DMEM/F-12 (Thermo Fisher Scientific, cat. 12634028), 10 mM HEPES (Thermo Fisher Scientific, cat. 15630080), 1X GlutaMAX supplement (Thermo Fisher Scientific, cat. 35050061), 0.1 mg/mL primocin (InvivoGen, San Diego, CA, cat. ant-pm-2), 10% defined fetal bovine serum, heat inactivated (HyClone Laboratories Inc., Logan, UT, cat. SH30070.03HI), 50% L-WRN conditioned media (ATCC, cat. CRL-3276), 1.25 mM N-Acetyl-L-cysteine (Sigma-Aldrich, cat. A9165), 10 mM nicotinamide (Sigma-Aldrich, cat. N0636), 1X B-27 supplement (Thermo Fisher Scientific, cat. 17504044), 1X N-2 supplement (Thermo Fisher Scientific, cat. 17502048), 50 ng/mL human EGF (Thermo Fisher Scientific, cat. PHG0311), and 10 microM Y-27632 dihydrochloride (Tocris Bioscience, cat. 1254). The K12877-001-R-J1-PDC line was cultured in 6I media, which includes all 6C/Colon 1B media plus 10 ng/mL human FGF-10 (PeproTech, cat. 100-26), 1 ng/mL human FGF-2 (PeproTech, cat. 100-18B), 1 µM prostaglandin E2 (Tocris Bioscience, cat. 2296), […] hydrocortisone (Sigma-Aldrich, cat. H4001), and […] bovine insulin (Sigma-Aldrich, cat. I6634). The K86415-001-R-J1-PDC line was cultured in 6D media, which includes all 6C/Colon 1B media components minus the L-WRN conditioned media. The 485176-168-R4-J1-PDC was cultured in PANC media, which includes all 6C/Colon 1B media plus 100 ng/mL human FGF-10 (PeproTech, cat. 100-26), 500 nM SB-431542 (Selleckchem, cat. S1067), and 10 nM gastrin (Tocris Bioscience, cat. 3006). […]
# 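Also: viability read after seven days of drug exposure.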
# 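For viability, T/C in this document: 100% = DMSO vehicle control viability.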
compound,measurement,setting,value
CC(=O)OC12COC1CC(O)C1(C)C(=O)C(O)C3=C(C)C(OC(=O)C(O)C(NC(=O)OC(C)(C)C)c4ccccc4)CC(O)(C(OC(=O)c4ccccc4)C21)C3(C)C (stereo not drawn),"viability, T/C",compound 0.0316 µM,71.6% [middle of 4 runs]
same,"viability, T/C",compound 0.1 µM,68.3% [middle of 4 runs]
same,"viability, T/C",compound 0.316 µM,72.2% [middle of 4 runs]
same,"viability, T/C",compound 1 µM,76.2% [middle of 4 runs]
same,"viability, T/C",compound 10 µM,90.3% [middle of 4 runs]
same,IC50,curve of compound,> 10000 nM
C=CC(=O)Nc1cc(Nc2nccc(-c3cn(C)c4ccccc34)n2)c(OC)cc1N(C)CCN(C)C + C#Cc1c(F)ccc2cc(O)cc(-c3ncc4c(N5CC6CCC(C5)N6)nc(OCC56CCCN5CC(F)C6)nc4c3F)c12,IC50,"curve of first compound, second compound 0.0316 µM",346 nM
same,IC50,"curve of first compound, second compound 0.1 µM",402 nM
same,IC50,"curve of first compound, second compound 0.316 µM",240 nM
same,IC50,"curve of first compound, second compound 1 µM",165 nM
same,IC50,"curve of first compound, second compound 3.16 µM",50.7 nM
same,IC50,"curve of first compound, second compound 10 µM",< 3.16 nM
same,"viability, T/C","second compound 0.0316 µM, first compound 0.00316 µM",99.4%
same,"viability, T/C","second compound 0.0316 µM, first compound 0.01 µM",92.1%
same,"viability, T/C","second compound 0.0316 µM, first compound 0.0316 µM",92.3%
same,"viability, T/C","second compound 0.0316 µM, first compound 0.1 µM",69.6%
same,"viability, T/C","second compound 0.0316 µM, first compound 0.316 µM",53.1%
same,"viability, T/C","second compound 0.0316 µM, first compound 1 µM",31.5%
same,"viability, T/C","second compound 0.1 µM, first compound 0.00316 µM",93.1%
same,"viability, T/C","second compound 0.1 µM, first compound 0.01 µM",100%
same,"viability, T/C","second compound 0.1 µM, first compound 0.0316 µM",80.9%
same,"viability, T/C","second compound 0.1 µM, first compound 0.1 µM",69.9%
same,"viability, T/C","second compound 0.1 µM, first compound 0.316 µM",58.6%
same,"viability, T/C","second compound 0.1 µM, first compound 1 µM",29.2%
same,"viability, T/C","second compound 0.316 µM, first compound 0.00316 µM",95.8%
same,"viability, T/C","second compound 0.316 µM, first compound 0.01 µM",81%
same,"viability, T/C","second compound 0.316 µM, first compound 0.0316 µM",77.8%
same,"viability, T/C","second compound 0.316 µM, first compound 0.1 µM",61.5%
same,"viability, T/C","second compound 0.316 µM, first compound 0.316 µM",48.1%
same,"viability, T/C","second compound 0.316 µM, first compound 1 µM",27.6%
same,"viability, T/C","second compound 1 µM, first compound 0.00316 µM",72.6%
same,"viability, T/C","second compound 1 µM, first compound 0.01 µM",79.7%
same,"viability, T/C","second compound 1 µM, first compound 0.0316 µM",68.9%
same,"viability, T/C","second compound 1 µM, first compound 0.1 µM",59%
same,"viability, T/C","second compound 1 µM, first compound 0.316 µM",38.7%
same,"viability, T/C","second compound 1 µM, first compound 1 µM",23%
same,"viability, T/C","second compound 3.16 µM, first compound 0.00316 µM",57.7%
same,"viability, T/C","second compound 3.16 µM, first compound 0.01 µM",55.1%
same,"viability, T/C","second compound 3.16 µM, first compound 0.0316 µM",56.6%
same,"viability, T/C","second compound 3.16 µM, first compound 0.1 µM",42.6%
same,"viability, T/C","second compound 3.16 µM, first compound 0.316 µM",30.6%
same,"viability, T/C","second compound 3.16 µM, first compound 1 µM",20%
same,"viability, T/C","second compound 10 µM, first compound 0.00316 µM",39.4%
same,"viability, T/C","second compound 10 µM, first compound 0.01 µM",41.5%
same,"viability, T/C","second compound 10 µM, first compound 0.0316 µM",37.3%
same,"viability, T/C","second compound 10 µM, first compound 0.1 µM",32.4%
same,"viability, T/C","second compound 10 µM, first compound 0.316 µM",25.8%
same,"viability, T/C","second compound 10 µM, first compound 1 µM",15.7%
